Results from US20150044244A1, “COMBINED FACILITATOR, ANTIGEN AND DNA VACCINE FOR PREVENTING AND TREATING AUTOIMMUNE DISEASES” (BEIJING ADVANCCINE BIOTECHNOLOGY CO. LTD., priority 2011, published 2015).

How the values were obtained:
[1] = test system: JAWS II cells; assay: Endocytosis inhibitors and CD40low phenotype in JAWS II cells; format: cell-based, mouse; conditions: for effect on CD40low phenotype: pretreatment before pOVA323+OVA323
Protocol: The JAWS II mouse DC line was purchased from the American Type Culture Collection (ATCC, Manassas, Va., USA) and maintained in complete growth medium containing minimum essential medium (MEM) alpha with ribonucleosides, deoxyribonucleosides, 4 mM L-glutamine, and 1 mM sodium pyruvate (Invitrogen Inc., Carlsbad, Calif., USA), and supplemented with 20% fetal bovine serum (ATCC) and 5 ng/ml murine recombinant GM-CSF (R&D Systems, Inc., Minneapolis, Minn., USA). The cells were incubated at 37° C. with 5% CO2 and treated with different antigens (10 μg/ml) such as pVAX, pOVA, OVA, pOVA323 and OVA323 for 24 h. For inhibitor treatment, JAWS II cells were pre-treated with filipin (10 μg/ml), MDC (50 μM) for 30 min at 37° C., respectively, or with amiloride (5 mM) for 10 min at 37° C., and washed with medium, then stimulated with antigens.
DCs take up exogenous antigens via various mechanisms including clathrin-mediated endocytosis, caveolae-mediated endocytosis, and macropinocytosis. To define which pathway(s) were involved in the co-uptake of DNA and protein immunogens, JAWS II cells were pretreated with MDC, a specific inhibitor of clathrin formation, or filipin, an inhibitor of caveolae trafficking, before being treated with pOVA323+OVA323. […] Another inhibitor, amiloride, an inhibitor for macropinocytosis, had no effect on CD40 expression (FIG. 37).

[2] = target: T1, MHC-II (I-Ad) (Mus musculus, UniProt P01921+P04228); assay: Tetramer staining-based epitope competition assay; format: binding
T1 construct: purchased NIH Tetramer Core Facility
T1 sequence (P04228 24-218 limits assumed): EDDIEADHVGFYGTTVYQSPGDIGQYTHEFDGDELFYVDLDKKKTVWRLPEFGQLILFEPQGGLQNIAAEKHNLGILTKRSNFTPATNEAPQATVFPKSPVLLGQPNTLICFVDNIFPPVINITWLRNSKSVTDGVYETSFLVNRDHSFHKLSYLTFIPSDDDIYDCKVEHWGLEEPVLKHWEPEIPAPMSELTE
T1 sequence (P01921 28-226 limits assumed): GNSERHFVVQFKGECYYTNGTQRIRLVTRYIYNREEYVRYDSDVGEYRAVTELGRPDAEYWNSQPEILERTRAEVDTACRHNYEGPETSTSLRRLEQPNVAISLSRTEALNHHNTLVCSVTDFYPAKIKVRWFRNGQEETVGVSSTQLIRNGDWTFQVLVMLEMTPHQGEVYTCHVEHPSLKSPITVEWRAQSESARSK
Protocol: To further determine how antigenicity affects CD25^− iTreg induction, a set of mutated epitopes were generated from OVA323-339 (SEQ ID NO:187). Using a tetramer staining-based epitope competition assay, the affinity of each of the mutated epitopes for MHC-II was assessed. […] OVA323-339, MT1, and MT2 as probes for antigenicity studies were therefore selected.
With respect to the tetramer competition assay, PE-conjugated OVA323-339-loaded I-Ad tetramer (NIH Tetramer Core Facility) was competed with OVA323-339 or a mutant peptide by incubation of 2×10^5 DO11.10 T cells, the OVA323-339 tetramer, and a competing peptide together for 5 minutes. Five volumes of medium with 10% FCS were added to stop the competition. Cells were washed 3 times and immediately analyzed for PE-positive T cells by flow cytometer.

[3] = test system: CD4+CD25− naive T cells; assay: Foxp3-GFP induction in naive T cells with anti-CD3/anti-CD28 and cytokines; format: cell-based, Foxp3gfp mouse
[4] = test system: RAW264.7, JAWSII and DC2.4; assay: Cy5-pEGFP plasmid entry and GFP expression in APC cell lines with amiloride; format: cell-based, mouse; conditions: vs un-treated cells
[5] = test system: Cy5+ cells in draining lymph nodes; assay: Cy5-pEGFP plasmid entry into draining lymph node cells after footpad injection; format: in vivo, C57B/6 mice; conditions: 4 hrs after footpad injection
Protocol: To explore if amiloride would overcome low transfection efficiency in vivo, Cy5-labeled pEFGP plasmid with or without amiloride was injected into hind footpads of C57B/6 mice. After 4 hrs, draining lymph nodes were collected and Cy5+ cells were analyzed by FACS analysis. The inguinal lymph nodes from the un-injected side were also collected as negative controls. […] The other ˜10% was B220+, a B cell marker. […].

[6] = test system: RAW264.7, DC2.4 and JAWSII; assay: Maturation markers and innate cytokines after pcD-S2 with or without amiloride, cell lines; format: cell-based, mouse
Protocol: With respect to cell culture and inhibitor treatment, RAW264.7 and DC2.4 were cultured in DMEM/10% FCS, and JAWSII was cultured in DMEM/10% FCS with GMCSF (1000 U/ml, Peprotech, USA). Amiloride (Sigma-Aldrich, USA) was prepared as 10 mM solution and was diluted to 1 mM, 100 uM, 10 uM in DMEM medium before treatment. After culture medium was removed, cells were treated with amiloride, MβCD (5 mM, Sigma) or Fillipin (10 μg/ml, sigma) at 37° C. for 1 h. LPS (10 μg/ml, sigma) or 10 μg/ml DNA in DMEM was added at 37° C. for 0.5 h, after wash, culture medium was added and cells were cultured. Peritoneal macrophage was prepared from peritoneal cavity with 10 ml PBS wash, routinely with ˜50-70% F4/80 purity. Spleen dendritic cell was prepared from plate-adhesive cells and purified with Miltenyi DC purification kit (Miltenyi Biotec, Gladbach, Germany). Cells were treated and cultured 3 days for innate response.
Hepatitis B virus DNA vaccine (pcD-S2) encoding for HBsAg, which was conjugated with Cy5, was used to test whether amiloride-facilitated DNA entry into antigen presenting cells could positively affect innate immune responses.

[7] = test system: CD8 T cells co-cultured with peritoneal macrophages or spleen dendritic cells; assay: APC and CD8 T cell co-culture, S208-215 restimulation; format: cell-based, mice; conditions: macrophages and DCs co-culture system
Protocol: With respect to co-cultures, pcD-S2 (10 μg/ml) with or without 100 μM amiloride treat APCs, peritoneal macrophage or spleen dendrtic cell, were cultured for 2 days. At day3, purified CD8 T cell (R&D systems, USA) was added into culture with APC:T ratio of 1:5, 1:2, 1:1. At day 8, cells were collected and restimulated with S208-215 (10 μg/ml). PMA+Ionomycin was added as positive control for restimulation.
During the co-culture, HBsAg-derived peptide S208-215 (ILSPFLPL; H-2 Kb-restricted) was used to re-stimulate. Proportions of responsive T cells were analyzed.

[8] = test system: HBsAg; conditions: vs pcD-S2 alone; dose dependent manner
[9] = test system: splenic CD4+ T cells; assay: In vitro restimulation of T cells from FSA1 sensitized mice; format: cell-based, C57BL/6 mice; conditions: than P66
Protocol: Splenic CD4^+ T cells from flea antigen immunized C57BL/6 mice were restimulated with P100 or P66 (5 ug/ml) in culture. T cell proliferation was determined by a 3-(4,5-Dimethylthiazol-2-yl)-2,5-diphenyltetrazolium bromide (MTT, a yellow tetrazole)-based assay. Concanavalin A (1 ug/ml) and BSA (1 ug/ml) were used as positive and negative controls, respectively. *, p<0.05. Shown is one of three independent experiments with similar results.
Flea allergic dermatitis is an allergic reaction to flea allergen that is mediated by CD4^+ T effector cells. To the above findings to a disease model, two antigenic epitopes from the flea allergen FSA1 were chosen, namely P66 (amino acids 66-80) (SEQ ID NO:189) and P100 (amino acids 100-114) (SEQ ID NO:188). […] This prediction was confirmed by sensitizing C57BL/6 mice (I-Ab^+) with full-length FSA1 followed by an in vitro restimulation assay using one of the epitopes.
With respect to T cell proliferation, MTT-based and CF SE-based T cell proliferation assays were performed as described before.

[10] = test system: flea allergic dermatitis; assay: Prophylactic co-immunization in flea allergic dermatitis model; format: in vivo, C57BL/6 mice; conditions: than P66
Description: To see whether the difference in antigenicity influences the induction of CD25^− iTreg cells by these two epitopes, C57BL/6 mice were prophylactically treated with co-immunization using the combination of DNA and protein vaccines targeting each epitope (designated as Co100 or Co66). Seven days after co-immunization, the animals were sensitized with flea saliva extracts, followed by a delayed-type hypersensitivity assay to determine to which extent the prophylactic co-immunization prevents the development of an allergic reaction.
With respect to tolerogenic immunization, Balb/c mice were injected intramuscular (i.m.) on days 0 and 14 with 100 ug each of OVA323-339 and pVAX1-OVA, MT1 and pVAX1-MT1, or MT2 and pVAX1-MT2. C57BL/6 mice were similarly injected with P100 and D100, or P66 and D66.
With respect to the intradermal test and histology, antigen-sensitized C57BL/6 mice were challenged intradermally (i.d.) with 10 ug of FSA (Greer Laboratories) on the nonlesional lateral thorax skin. PBS is used as a sham control and histamine is used as a positive control. The diameter of the skin reaction was measured within 30 min after challenge using a calibrated micrometer. Skin samples were collected within 30 min of antigen challenge, fixed in 4% paraformaldehyde, embedded in paraffin, and sectioned. […]

CCCCC[C@@H](O)[C@H]1C(=O)O[C@H](C)[C@@H](O)/C=C/C=C/C=C/C=C/C=C(\C)[C@@H](O)C[C@H](O)C[C@H](O)C[C@H](O)C[C@H](O)C[C@H](O)C[C@@H]1O [filipin]
relative effectiveness in preventing CD40low phenotype [1]: more effective than MDC
effect on CD40low phenotype [1]: could prevent

ISQAVHAAHAEINEAGR (listed as Gallus gallus) [OVA323-339]
order of affinity for MHC-II [2]: OVA323-339>MT1>MT2=MT3

CN(C)c1cccc2c(S(=O)(=O)NCCCCCN)cccc12 [MDC, monodansylcadaverine]
effect on CD40low phenotype [1]: could prevent

TGF-β1: titrated rhTGF-β1 (PeproTech)
GFP (Foxp3) expression in CD25− T cells [3]: up-regulated

N=C(N)NC(=O)c1nc(Cl)c(N)nc1N [amiloride]
GFP expression ([4]; 1 mM amiloride 1 h, after 3 days culture): significantly higher level of GFP
uptake of Cy5-labeled pEGFP plasmids ([4]; pre-treated with 1 mM amiloride for 1 h, within 2 hrs): significantly taken up
percentage of Cy5-plasmid+ cells in lymph nodes (LN) ([5]; amiloride 10 μM): increased
percentage of Cy5-plasmid+ cells in lymph nodes (LN) ([5]; amiloride 100 μM): peaked
percentage of Cy5-plasmid+ cells in lymph nodes (LN) ([5]; amiloride 1 mM): decreased
expression of CD40, CD80 and CD86 ([6]; pcD-S2 plasmid with amiloride treatment): higher levels of expression of CD40, CD80 and CD86
expression of TNF and IFN-γ ([6]; vs same cells without amiloride treatment): higher levels of expression of TNF and IFN-γ
percentage of S208-215 specific triple positive CD8 T effectors [7]: significantly increased
effect on CD40 expression ([1]; amiloride (5 mM) for 10 min): no effect
levels of antibody against HBsAg [8]: increased

GPDWKVSKECKDPNN (Pulex irritans) [P100]
T cell proliferation [9]: significantly more vigorous T cell proliferation
CD25− iTreg induced [10]: induced more

B1: IL-10: rmIL10 (PeproTech) (protein, UniProt P18893 19-178, looked up)
Interleukin-10: SRGQYSREDNNCTHFPVGQSHMLLELRTAFSQVKTFFQTKDQLDNILLTDSLMQDFKGYLGCQALSEMIQFYLVEVMPQAEKHGPEIKEHLNSLGEKLKTLRMRLRRCHRFLPCENKSKAVEQVKSDFNKLQDQGVYKAMNEFDIFINCIEAYMMIKMKS
GFP (Foxp3) expression in CD25− T cells [3]: neither alone influenced the expression of Foxp3
